Peptide text beside a SMILES is read from it.
Columns and labels:
Assay type in all cases: cell-based
[1] = molecular target: T1, PrRPR L294A (Homo sapiens, UniProt P49683, L294A); assay: BRET2 Gq dissociation, L294A; conditions: L294A (6.51), Gq-coupling, AD293 cells; mean ± S.E.M., n = 3; P <0.0001 vs WT; read-out: BRET2 pEC50 (converted)
T1 construct: Flag; expressed in transfected cells; host or cells: AD293 cells
Protocol: (§1) AD293 cells (Agilent) were propagated in Dulbecco’s Modified Eagle Medium (DMEM, Thermo Fisher Scientific), enriched with 10% fetal bovine serum (FBS, Thermo Fisher Scientific), and maintained at 37 °C in a 5% CO2 environment. Cells were then seeded in 6-well dishes at a density of 130,000–150,000 cells per mL and allowed to incubate overnight. On the next day, cells were transfected with plasmids at a 1:1:1:1 ratio for receptor:Gα-RLuc8:Gβ:Gγ-GFP2[52]. PEI MAX 40 K (BIOHUB) was utilized to form complex with the plasmids at a ratio of 3 µL PEI per µg of plasmids, in OptiMEM (Gibco-Thermo Fisher Scientific) at a concentration of 10 ng plasmids per µL OptiMEM. After 24 h of incubation, the culture was harvested by centrifugation with PBS. The cell suspension was then allocated into a white 384-well plate at a volume of 30 µL per well, followed by the addition of 10 µL of freshly prepared 50 µM coelenterazine 400a (Yeasen). […] Plates were subsequently read in a BioTek Synergy H1 microplate reader (BioTek) equipped with 395 nm (RLuc8-coelenterazine 400a) and 510 nm (GFP2) emission filters. BRET2 ratios were calculated as the ratio of the GFP2 emission to RLuc8 emission. […]
(§2) Supplementary Fig. S4 | Effects of mutations in the ligand-binding pocket and G protein intereface of Gq coupled PrRPR by BRET2 assay. […] BRET2 assay signals were measured after stimulation with PrRP20. […]

[2] = molecular target: T2, PrRPR Y225A (Homo sapiens, UniProt P49683, Y225A); assay: BRET2 Gi dissociation, Y225A; conditions: Y225A (5.38), Gi-coupling, AD293 cells; mean ± S.E.M., n = 3; P <0.0001 vs WT; read-out: BRET2 pEC50 (converted)
T2 construct: Flag; expressed in transfected cells; host or cells: AD293 cells
Protocol: (§3) AD293 cells (Agilent) were propagated in Dulbecco’s Modified Eagle Medium (DMEM, Thermo Fisher Scientific), enriched with 10% fetal bovine serum (FBS, Thermo Fisher Scientific), and maintained at 37 °C in a 5% CO2 environment. Cells were then seeded in 6-well dishes at a density of 130,000–150,000 cells per mL and allowed to incubate overnight. On the next day, cells were transfected with plasmids at a 1:1:1:1 ratio for receptor:Gα-RLuc8:Gβ:Gγ-GFP2[52]. PEI MAX 40 K (BIOHUB) was utilized to form complex with the plasmids at a ratio of 3 µL PEI per µg of plasmids, in OptiMEM (Gibco-Thermo Fisher Scientific) at a concentration of 10 ng plasmids per µL OptiMEM. After 24 h of incubation, the culture was harvested by centrifugation with PBS. The cell suspension was then allocated into a white 384-well plate at a volume of 30 µL per well, followed by the addition of 10 µL of freshly prepared 50 µM coelenterazine 400a (Yeasen). Following a 15-min equilibration period, cells were treated with 10 µL of ligand for an additional 5 min. Plates were subsequently read in a BioTek Synergy H1 microplate reader (BioTek) equipped with 395 nm (RLuc8-coelenterazine 400a) and 510 nm (GFP2) emission filters. BRET2 ratios were calculated as the ratio of the GFP2 emission to RLuc8 emission. Data were normalized to the baseline response of the ligand. […]

[3] = molecular target: T3, PrRPR Q317A (Homo sapiens, UniProt P49683, Q317A); assay: BRET2 Gq dissociation, Q317A; conditions: Q317A (7.35), Gq-coupling, AD293 cells; mean ± S.E.M., n = 3; P <0.0001 vs WT; read-out: BRET2 pEC50 (converted)
T3 construct: Flag; expressed in transfected cells; host or cells: AD293 cells
Protocol: as §1, §2

[4] = molecular target: T4, PrRPR WT (Homo sapiens, UniProt P49683); assay: BRET2 Gq dissociation, WT; conditions: WT (reference for normalisation), Gq-coupling, AD293 cells; n = 3
T4 construct: expressed in transfected cells; host or cells: AD293 cells
T4 sequence (P49683 1-370): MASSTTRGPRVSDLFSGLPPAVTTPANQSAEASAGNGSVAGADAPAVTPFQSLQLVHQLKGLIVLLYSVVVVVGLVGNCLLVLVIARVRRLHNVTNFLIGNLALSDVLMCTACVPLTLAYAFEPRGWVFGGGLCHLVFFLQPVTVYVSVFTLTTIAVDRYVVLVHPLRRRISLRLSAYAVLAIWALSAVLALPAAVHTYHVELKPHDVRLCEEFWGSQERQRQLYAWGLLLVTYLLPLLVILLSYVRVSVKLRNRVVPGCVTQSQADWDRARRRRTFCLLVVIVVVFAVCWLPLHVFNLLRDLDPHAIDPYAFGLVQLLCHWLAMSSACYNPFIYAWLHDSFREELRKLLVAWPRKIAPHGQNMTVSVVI
Protocol: as §1, §2

[5] = molecular target: T5, PrRPR D302A (Homo sapiens, UniProt P49683, D302A); assay: BRET2 Gq dissociation, D302A; conditions: D302A (6.59), Gq-coupling, AD293 cells; mean ± S.E.M., n = 3; P <0.0001 vs WT; read-out: BRET2 pEC50 (converted)
T5 construct: Flag; expressed in transfected cells; host or cells: AD293 cells
Protocol: as §1, §2

[6] = molecular target: T6, PrRPR L229A (Homo sapiens, UniProt P49683, L229A); assay: BRET2 Gi dissociation, L229A; conditions: L229A (5.42), Gi-coupling, AD293 cells; mean ± S.E.M., n = 3; P <0.0001 vs WT; read-out: BRET2 pEC50 (converted)
T6 construct: Flag; expressed in transfected cells; host or cells: AD293 cells
Protocol: as §3

[7] = molecular target: T7, PrRPR F313A (Homo sapiens, UniProt P49683, F313A); assay: BRET2 Gi dissociation, F313A; conditions: F313A (7.31), Gi-coupling, AD293 cells; mean ± S.E.M., n = 3; P <0.0001 vs WT; read-out: BRET2 pEC50 (converted)
T7 construct: Flag; expressed in transfected cells; host or cells: AD293 cells
Protocol: as §3

[8] = molecular target: T8, PrRPR Y120A (Homo sapiens, UniProt P49683, Y120A); assay: BRET2 Gi dissociation, Y120A; conditions: Y120A (2.64), Gi-coupling, AD293 cells; mean ± S.E.M., n = 3; P <0.0001 vs WT; read-out: BRET2 pEC50 (converted)
T8 construct: expressed in transfected cells; host or cells: AD293 cells
Protocol: as §3

[9] = molecular target: T1, PrRPR L294A; assay: BRET2 Gi dissociation, L294A; conditions: L294A (6.51), Gi-coupling, AD293 cells; mean ± S.E.M., n = 3; P 0.2845 vs WT; read-out: BRET2 pEC50 (converted)
Protocol: as §3

[10] = molecular target: T9, PrRPR C113A (Homo sapiens, UniProt P49683, C113A); assay: BRET2 Gi dissociation, C113A; conditions: C113A (2.57), Gi-coupling, AD293 cells; mean ± S.E.M., n = 3; P 0.0008 vs WT; read-out: BRET2 pEC50 (converted)
T9 construct: expressed in transfected cells; host or cells: AD293 cells
Protocol: as §3

T1 sequence (P49683 whole entry L294A): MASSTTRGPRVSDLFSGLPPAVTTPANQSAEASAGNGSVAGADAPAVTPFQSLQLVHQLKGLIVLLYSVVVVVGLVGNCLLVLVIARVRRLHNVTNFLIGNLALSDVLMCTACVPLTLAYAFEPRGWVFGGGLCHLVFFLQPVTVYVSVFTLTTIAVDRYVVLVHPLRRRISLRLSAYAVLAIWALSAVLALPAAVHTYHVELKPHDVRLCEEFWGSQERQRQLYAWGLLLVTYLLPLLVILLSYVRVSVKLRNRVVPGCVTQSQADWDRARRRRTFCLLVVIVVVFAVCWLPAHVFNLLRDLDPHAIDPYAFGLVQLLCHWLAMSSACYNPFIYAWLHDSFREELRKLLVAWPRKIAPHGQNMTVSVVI
T5 sequence (P49683 whole entry D302A): as the sequence (P49683 whole entry L294A) above, with A294L, D302A counted along it
T2 sequence (P49683 whole entry Y225A): as the sequence (P49683 whole entry L294A) above, with Y225A, A294L counted along it
T8 sequence (P49683 whole entry Y120A): as the sequence (P49683 whole entry L294A) above, with Y120A, A294L counted along it
T7 sequence (P49683 whole entry F313A): as the sequence (P49683 whole entry L294A) above, with A294L, F313A counted along it
T3 sequence (P49683 whole entry Q317A): as the sequence (P49683 whole entry L294A) above, with A294L, Q317A counted along it
T6 sequence (P49683 whole entry L229A): as the sequence (P49683 whole entry L294A) above, with L229A, A294L counted along it
T9 sequence (P49683 whole entry C113A): as the sequence (P49683 whole entry L294A) above, with C113A, A294L counted along it

Compound `CC[C@H](C)[C@H](NC(=O)CNC(=O)[C@H](CCCNC(=N)N)NC(=O)[C@H](CO)NC(=O)[C@H](C)NC(=O)[C@H](Cc1ccc(O)cc1)NC(=O)[C@H](Cc1c[nH]c2ccccc12)NC(=O)[C@H](C)NC(=O)[C@@H]1CCCN1C(=O)[C@H](CC(N)=O)NC(=O)[C@@H](NC(=O)[C@H](CC(=O)O)NC(=O)[C@@H]1CCCN1C(=O)[C@@H](N)[C@@H](C)O)[C@@H](C)CC)C(=O)N[C@@H](CCCNC(=N)N)C(=O)N1CCC[C@H]1C(=O)N[C@H](C(=O)NCC(=O)N[C@@H](CCCNC(=N)N)C(=O)N[C@@H](Cc1ccccc1)C(N)=O)C(C)C` [PrRP20] (H-TPDINPAWYASRGIRPVGRF-NH2) has an EC50 [1] of 5.62 nM, an EC50 [2] of 550 nM and an EC50 [3] of 309 nM. It also gave a BRET2 span [4] of 100.00 %WT, an EC50 [5] of 151 nM and an EC50 [6] of 85.1 nM. For the same compound, the EC50 [7] was 14.8 nM, the EC50 [8] was 3390 nM and the EC50 [9] was 3.72 nM. The EC50 [10] was 7.08 nM.
